Laboratory results: patent publication US9586962B2, “Disubstituted octahydropyrrolo [3,4-C] pyrroles as orexin receptor modulators” (Janssen Pharmaceutica NV, priority 2011, dated 2017)

Molecular target: human orexin 2 receptor (Homo sapiens (Human), UniProt O43614)
Assay: Human orexin 2 receptor Ca2+ mobilization assay (FLIPR, PFSK cells, orexin B 100 nM)
Assay type: cell-based
Settings: modified Cheng-Prusoff correction, read-out: OR 2 Kb

Chain of human orexin 2 receptor (O43614 whole entry): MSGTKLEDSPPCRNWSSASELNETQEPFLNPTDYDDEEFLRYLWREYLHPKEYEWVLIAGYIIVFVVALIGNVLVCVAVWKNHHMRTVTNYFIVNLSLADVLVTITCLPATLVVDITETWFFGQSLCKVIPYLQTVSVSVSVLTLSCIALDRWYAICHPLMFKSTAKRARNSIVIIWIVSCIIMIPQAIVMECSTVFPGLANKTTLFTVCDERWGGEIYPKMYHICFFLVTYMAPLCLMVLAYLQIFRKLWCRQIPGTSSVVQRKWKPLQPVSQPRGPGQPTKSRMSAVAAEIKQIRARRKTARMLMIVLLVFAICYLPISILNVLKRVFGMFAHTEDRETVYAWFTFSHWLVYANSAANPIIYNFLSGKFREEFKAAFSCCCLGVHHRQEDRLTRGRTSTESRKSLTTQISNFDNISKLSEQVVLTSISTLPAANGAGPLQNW

| Compound | Kb [nM] |
| --- | --- |
| COc1ccc(C(=O)N2CC3CN(c4nccc(-c5ccccc5)n4)CC3C2)c(OC)c1 (stereo not shown) [Example 167, 2-[(2,4-Dimethoxyphenyl)carbonyl]-5-(4-phenylpyrimidin-2-yl)octahydropyrrolo[3,4-c]pyrrole] | 631 |
| O=C(c1ccccc1-c1ccccc1)N1CC2CN(c3cnc4ccccc4n3)CC2C1 (stereo not shown) [Example 168, 2-[5-(Biphenyl-2-ylcarbonyl)hexahydropyrrolo[3,4-c]pyrrol-2(1H)-yl]quinoxaline] | 126 |
| O=C(c1ccccc1-c1ccccc1)N1CC2CN(c3nc4ccc(F)cc4s3)CC2C1 (stereo not shown) [Example 176, 2-[5-(Biphenyl-2-ylcarbonyl)hexahydropyrrolo[3,4-c]pyrrol-2(1H)-yl]-6-fluoro-1,3-benzothiazole] | 158 |
| Cc1cc(N2CC3CN(C(=O)c4ccccc4-c4ccccc4)CC3C2)nc2ccccc12 (stereo not shown) [Example 178, 2-[5-(Biphenyl-2-ylcarbonyl)hexahydropyrrolo[3,4-c]pyrrol-2(1H)-yl]-4-methylquinoline] | 126 |
| Cc1cc(N2CC3CN(C(=O)c4cc(F)ccc4-c4ncccn4)CC3C2)nc(C(F)(F)F)n1 (stereo not shown) [Example 204, (5-Fluoro-2-pyrimidin-2-yl-phenyl)-[5-(6-methyl-2-trifluoromethyl-pyrimidin-4-yl)-hexahydro-pyrrolo[3,4-c]pyrrol-2-yl]-methanone] | 20 |
| Cc1cncc(N2CC3CN(C(=O)c4ccccc4-n4nccn4)CC3C2)n1 (stereo not shown) [Example 211, [5-(6-Methyl-pyrazin-2-yl)-hexahydro-pyrrolo[3,4-c]pyrrol-2-yl]-(2-[1,2,3]triazol-2-yl-phenyl)-methanone] | 25 |
| Cc1cnc(C)c(N2CC3CN(C(=O)c4cc(F)ccc4-c4ncccn4)CC3C2)n1 (stereo not shown) [Example 212, [5-(3,6-Dimethyl-pyrazin-2-yl)-hexahydro-pyrrolo[3,4-c]pyrrol-2-yl]-(5-fluoro-2-pyrimidin-2-yl-phenyl)-methanone] | 32 |
| Cc1cnc(C)c(N2CC3CN(C(=O)c4ccccc4-c4ncn[nH]4)CC3C2)n1 (stereo not shown) [Example 213, [5-(3,6-Dimethyl-pyrazin-2-yl)-hexahydro-pyrrolo[3,4-c]pyrrol-2-yl]-[2-(2H-[1,2,4]triazol-3-yl)-phenyl]-methanone] | 50 |
| Cc1cc(C)nc(N2CC3CN(C(=O)c4ccc(F)cc4-c4ncccn4)CC3C2)n1 (stereo not shown) [Example 231, (5-(4,6-Dimethylpyrimidin-2-yl)hexahydropyrrolo[3,4-c]pyrrol-2(1H)-yl)(4-fluoro-2-(pyrimidin-2-yl)phenyl)methanone] | 7 |
| Cc1cc(C)nc(N2CC3CN(C(=O)c4cccc(F)c4I)CC3C2)n1 (stereo not shown) [Example 232, (5-(4,6-Dimethylpyrimidin-2-yl)hexahydropyrrolo[3,4-c]pyrrol-2(1H)-yl)(3-fluoro-2-iodophenyl)methanone] | 7 |
| Cc1cc(C)nc(N2CC3CN(C(=O)c4cccnc4-c4ccn[nH]4)CC3C2)n1 (stereo not shown) [Example 237, (2-(1H-Pyrazol-5-yl)pyridin-3-yl)(5-(4,6-dimethylpyrimidin-2-yl)hexahydropyrrolo[3,4-c]pyrrol-2(1H)-yl)methanone] | 18 |
| Cc1nc(N2CC3CN(C(=O)c4cccc(F)c4-c4ncccn4)CC3C2)nc(C)c1C (stereo not shown) [Example 239, (3-Fluoro-2-(pyrimidin-2-yl)phenyl)(5-(4,5,6-trimethylpyrimidin-2-yl)hexahydropyrrolo[3,4-c]pyrrol-2(1H)-yl)methanone] | 4 |
| Cc1nc(N2CC3CN(C(=O)c4cccc(F)c4-n4nccn4)CC3C2)nc(C)c1C (stereo not shown) [Example 240, (3-Fluoro-2-(2H-1,2,3-triazol-2-yl)phenyl)(5-(4,5,6-trimethylpyrimidin-2-yl)hexahydropyrrolo[3,4-c]pyrrol-2(1H)-yl)methanone] | 3 |
| COc1ccc(-n2nccn2)c(C(=O)N2CC3CN(c4nc(C)c(C)c(C)n4)CC3C2)c1 (stereo not shown) [Example 241, (5-Methoxy-2-(2H-1,2,3-triazol-2-yl)phenyl)(5-(4,5,6-trimethylpyrimidin-2-yl)hexahydropyrrolo[3,4-c]pyrrol-2(1H)-yl)methanone] | 7 |
| O=C(c1cccc(F)c1-n1nccn1)N1CC2CN(c3ncc4cc(F)ccc4n3)CC2C1 (stereo not shown) [Example 242, (3-Fluoro-2-(2H-1,2,3-triazol-2-yl)phenyl)(5-(6-fluoroquinazolin-2-yl)hexahydropyrrolo[3,4-c]pyrrol-2(1H)-yl)methanone] | 13 |
| O=C(c1cccc(F)c1-c1ncccn1)N1CC2CN(c3ncc4cc(F)ccc4n3)CC2C1 (stereo not shown) [Example 243, (3-Fluoro-2-(pyrimidin-2-yl)phenyl)(5-(6-fluoroquinazolin-2-yl)hexahydropyrrolo[3,4-c]pyrrol-2(1H)-yl)methanone] | 6 |
| COc1ccc(-n2nccn2)c(C(=O)N2CC3CN(c4cnc5cc(F)c(F)cc5n4)CC3C2)c1 (stereo not shown) [Example 245, (5-(6,7-Difluoroquinoxalin-2-yl)hexahydropyrrolo[3,4-c]pyrrol-2(1H)-yl)(5-methoxy-2-(2H-1,2,3-triazol-2-yl)phenyl)methanone] | 15 |

| Compound | Kb [nM] |
| --- | --- |
| O=C(c1c(F)cccc1-n1nccn1)N1CC2CN(c3cnc4cc(F)c(F)cc4n3)CC2C1 (stereo not shown) [Example 246, (5-(6,7-Difluoroquinoxalin-2-yl)hexahydropyrrolo[3,4-c]pyrrol-2(1H)-yl)(2-fluoro-6-(2H-1,2,3-triazol-2-yl)phenyl)methanone] | 11 |
| COc1ccc(C(=O)N2CC3CN(c4nc(C)cc(C)n4)CC3C2)c(-c2ncccn2)c1 (stereo not shown) [Example 272, (5-(4,6-Dimethylpyrimidin-2-yl)hexahydropyrrolo[3,4-c]pyrrol-2(1H)-yl)(4-methoxy-2-(pyrimidin-2-yl)phenyl)methanone] | 7 |
| Cc1cc(C)nc(N2CC3CN(C(=O)c4ccccc4OC(F)(F)F)CC3C2)n1 (stereo not shown) [Example 274, (5-(4,6-Dimethylpyrimidin-2-yl)hexahydropyrrolo[3,4-c]pyrrol-2(1H)-yl)(2-(trifluoromethoxy)phenyl)methanone] | 16 |
| Cc1cc(C)nc(N2CC3CN(C(=O)c4cccc(F)c4-c4ncccn4)CC3C2)n1 (stereo not shown) [Example 283, 2-(4,6-Dimethylpyrimidin-2-yl)-5-[(3-fluoro-2-pyrimidin-2-ylphenyl)carbonyl]octahydropyrrolo[3,4-c]pyrrole] | 2 |
| Cc1cc(C)nc(N2CC3CN(C(=O)c4cccc(F)c4-c4ccn[nH]4)CC3C2)n1 (stereo not shown) [Example 284, 2-(4,6-Dimethylpyrimidin-2-yl)-5-{[3-fluoro-2-(1H-pyrazol-5-yl)phenyl]carbonyl}octahydropyrrolo[3,4-c]pyrrole] | 2 |
| Cc1nc(N2CC3CN(C(=O)c4ccccc4-n4nccn4)CC3C2)ncc1F (stereo not shown) [Example 290, 2-(5-Fluoro-4-methylpyrimidin-2-yl)-5-{[2-(2H-1,2,3-triazol-2-yl)phenyl]carbonyl}octahydropyrrolo[3,4-c]pyrrole] | 7 |
| Cc1cc(C)nc(N2CC3CN(C(=O)c4ccccc4-c4nc(C)no4)CC3C2)n1 (stereo not shown) [Example 306, 2-(4,6-Dimethylpyrimidin-2-yl)-5-{[2-(3-methyl-1,2,4-oxadiazol-5-yl)phenyl]carbonyl}octahydropyrrolo[3,4-c]pyrrole] | 13 |
| Cc1cc(C)nc(N2CC3CN(C(=O)c4ccccc4-c4ncn(C)n4)CC3C2)n1 (stereo not shown) [Example 308, 2-(4,6-Dimethylpyrimidin-2-yl)-5-{[2-(1-methyl-1H-1,2,4-triazol-3-yl)phenyl]carbonyl}octahydropyrrolo[3,4-c]pyrrole] | 5 |
| Cc1noc(-c2ccccc2C(=O)N2CC3CN(c4nc(C)c(C)c(C)n4)CC3C2)n1 (stereo not shown) [Example 309, 2-{[2-(3-Methyl-1,2,4-oxadiazol-5-yl)phenyl]carbonyl}-5-(4,5,6-trimethylpyrimidin-2-yl)octahydropyrrolo[3,4-c]pyrrole] | 6 |
| Cc1noc(-c2ccccc2C(=O)N2CC3CN(c4ncc(F)c(C)n4)CC3C2)n1 (stereo not shown) [Example 310, 2-(5-Fluoro-4-methylpyrimidin-2-yl)-5-{[2-(3-methyl-1,2,4-oxadiazol-5-yl)phenyl]carbonyl}octahydropyrrolo[3,4-c]pyrrole] | 15 |
| Cc1nc(N2CC3CN(C(=O)c4ccccc4-c4ncn(C)n4)CC3C2)nc(C)c1C (stereo not shown) [Example 311, 2-{[2-(1-Methyl-1H-1,2,4-triazol-3-yl)phenyl]carbonyl}-5-(4,5,6-trimethylpyrimidin-2-yl)octahydropyrrolo[3,4-c]pyrrole] | 3 |
| Cc1nc(N2CC3CN(C(=O)c4ccccc4-c4ncn(C)n4)CC3C2)ncc1F (stereo not shown) [Example 312, 2-(5-Fluoro-4-methylpyrimidin-2-yl)-5-{[2-(1-methyl-1H-1,2,4-triazol-3-yl)phenyl]carbonyl}octahydropyrrolo[3,4-c]pyrrole] | 11 |
| Cc1cc(C)nc(N2CC3CN(C(=O)c4c(F)cccc4-c4nc(C)no4)CC3C2)n1 (stereo not shown) [Example 315, 2-(4,6-Dimethylpyrimidin-2-yl)-5-{[2-fluoro-6-(3-methyl-1,2,4-oxadiazol-5-yl)phenyl]carbonyl}octahydropyrrolo[3,4-c]pyrrole] | 10 |
| Cc1noc(-c2ccccc2C(=O)N2CC3CN(c4nc(C)c(Cl)c(C)n4)CC3C2)n1 (stereo not shown) [Example 318, 2-(5-Chloro-4,6-dimethylpyrimidin-2-yl)-5-{[2-(3-methyl-1,2,4-oxadiazol-5-yl)phenyl]carbonyl}octahydropyrrolo[3,4-c]pyrrole] | 3 |
| Cc1noc(-c2ccccc2C(=O)N2CC3CN(c4nc(C)c5c(n4)CCC5)CC3C2)n1 (stereo not shown) [Example 319, 4-Methyl-2-[5-{[2-(3-methyl-1,2,4-oxadiazol-5-yl)phenyl]carbonyl}hexahydropyrrolo[3,4-c]pyrrol-2(1H)-yl]-6,7-dihydro-5H-cyclopenta[d]pyrimidine] | 7 |
| Cc1nc(N2CC3CN(C(=O)c4ccccc4-c4ncn(C)n4)CC3C2)nc(C)c1Cl (stereo not shown) [Example 320, 2-(5-Chloro-4,6-dimethylpyrimidin-2-yl)-5-{[2-(1-methyl-1H-1,2,4-triazol-3-yl)phenyl]carbonyl}octahydropyrrolo[3,4-c]pyrrole] | 2 |
| Cc1nc(N2CC3CN(C(=O)c4ccccc4-c4ncn(C)n4)CC3C2)ncc1Cl (stereo not shown) [Example 321, 2-(5-Chloro-4-methylpyrimidin-2-yl)-5-{[2-(1-methyl-1H-1,2,4-triazol-3-yl)phenyl]carbonyl}octahydropyrrolo[3,4-c]pyrrole] | 10 |
